Data taken from patent publication US7767398B2, “Means and methods for diagnosing and treating affective disorders” (Affectis Pharmaceuticals AG, priority 2003, dated 2010).

What was measured:
[1] = molecular target: T1, P2X7R (Mus musculus, UniProt Q9Z1M0); assay: Entry of ethidium bromide into HT-22 cells; type: cell-based; details: pre-incubation 60 minutes with 100 μM o-ATP before agonist and ethidium bromide
T1 construct: an immortalised mouse hippocampal cell line expressing the endogenous P2X7 gene; endogenous in cells; host or cells: HT-22 mouse hippocampal cell line
T1 sequence (Q9Z1M0 1-595): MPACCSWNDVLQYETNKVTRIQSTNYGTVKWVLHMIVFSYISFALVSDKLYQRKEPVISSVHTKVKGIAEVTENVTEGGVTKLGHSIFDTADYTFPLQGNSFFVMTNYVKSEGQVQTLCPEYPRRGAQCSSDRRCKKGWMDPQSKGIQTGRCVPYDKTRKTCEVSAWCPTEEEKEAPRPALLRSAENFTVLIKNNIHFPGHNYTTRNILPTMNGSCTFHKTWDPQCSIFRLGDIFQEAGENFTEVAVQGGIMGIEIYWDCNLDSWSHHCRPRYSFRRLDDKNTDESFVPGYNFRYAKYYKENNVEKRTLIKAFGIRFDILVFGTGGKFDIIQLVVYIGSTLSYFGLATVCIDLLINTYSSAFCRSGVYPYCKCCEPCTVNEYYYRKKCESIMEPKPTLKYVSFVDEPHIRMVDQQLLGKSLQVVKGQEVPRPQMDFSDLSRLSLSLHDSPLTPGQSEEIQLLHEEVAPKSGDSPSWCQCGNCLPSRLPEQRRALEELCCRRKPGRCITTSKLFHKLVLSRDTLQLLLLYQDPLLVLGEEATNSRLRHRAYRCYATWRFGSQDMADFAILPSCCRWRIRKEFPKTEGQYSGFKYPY
Description: Yet another method of measuring P2X7R activity involves the entry of ethidium bromide into P2X7R expressing cells. Activation of P2X7R by an agonist allows the entry of ethidium bromide which binds nuclear DNA and emits a fluorescence signal. Alternatively, the propidium dye YOPRO-1 can be substituted for ethidium bromide. An increase in fluorescence can be used as a measure of P2X7 receptor activation. Therefore, the assay can be used to test and quantify the effect of an agent or compound with agonist properties on P2X7R. In the present example, 10^3 HT-22 cells were seeded per well in a 96-well flat bottom microtitre plates and incubated at 37° C./5% CO2 in DMEM medium containing 10% FCS until the cells attached to the culture surface. […] The number of fluorescent cells which have integrated the ethidium bromide to the DNA can then be counted using a fluorescent microscope (Zeiss, Germany). […] Alternatively, ethidium bromide fluorescence can be measured using a Perkin-Elmer fluorescent plate reader (excitation 520 nm, emission 595 nm, slit widths: Ex 15 nm, Em 20 nm). From the readings obtained, a pIC50 figure can be calculated for each candidate agent or compound. […] The specificity of an agonist for P2X7R can be evaluated by pre-incubation of the cells for 60 minutes with 100 μM o-ATP before adding the agonist and ethidium bromide dye.

[2] = test system: mice; assay: Porsolt's forced swim test; type: in vivo, mouse; details: 100 nM KN-62 or 10 μM oATP, 1 μl each side, dentate gyrus; 24 hours after injection; DBA/201a mice
Procedure: Further validation of role of P2X7R in affective disorders was performed by examining its expression pattern in response to stress and treatment with antidepressant drugs. […] In parallel, a control group of mice was given vehicle solution (i.e. without paroxetine) using the same treatment regiment while a second control group of mice was left undisturbed and stress-free (i.e. untreated) during the same period of the experiments. At the end of the long-term treatment, part of the mice of each experimental group were tested in the dark/light box (test of anxiety behaviour) and in the Porsolt's forced swim test (test of depressive-like behaviour) to confirm the effectiveness of the treatment (FIG. 5). […] The other part of the experimental groups (i.e. mice without test experience) were decapitated, brains rapidly removed and frozen at −80° C. until usage.
The effects of P2X7R inhibition on depressive-like behaviour was assessed 24 hours and 48 hours after infusion of siRNA, control or vehicle according to the standard test paradigm, the Porsolt's forced swim test (Porsolt et al., Arch. Int. Pharmacodym. 229 (1977), 327-336; Porsolt, Rev. Neurosci. 11 (2000), 53-58). […] Compared to vehicle application, no influence of control double stranded RNA (5′-[…]-3′) on floating behaviour (passive stress coping) was detected. […] This interpretation becomes moreover evident when the effects of antidepressants on passive stress coping behaviour in the forced swim test are visualized (FIG. 5). Passive stress coping behaviour increased after acute intrahippocampal injection (bilateral, dentate gyrus) of siRNA targeting P2X7R. The Porsolt's forced swim test is a standard test used to assess the effectiveness of antidepressants and it has been proven by many studies that the test is selectively sensitive for these effects, given that the right animal model is used. The paradigm has been widely used to test pharmaceutical compounds and to validate animal models of depression, which show an increase in passive behaviour as do the mice where P2X7R has been inhibited (siRNA).
The forced swim test is a standard test that measures primary stress-induced reductions in avoidance or escape, termed behavioural despair. The test is used to determine the effectiveness of antidepressants, test new pharmaceutical compounds and validate animal models of depression (Porsolt et al., Arch. Int. Pharmacodym. 229 (1977), 327-336; Porsolt, Rev. Neurosci. 11 (2000), 53-58; Rénéric et al., Behav. Brain Res. 136 (2002), 521-532; Page et al., Psychopharmacology 165 (2003), 194-201; Kelliher et al., Psychoneuroendocrinology 28 (2003), 332-347). The test consists of placing a mouse for a period of 5 minutes into a glass cylinder containing water. Under such circumstances, the mouse cannot touch the bottom of the cylinder and is thus forced to swim. Time, latency and frequency of struggling versus floating are scored as behavioural parameters. […] Increased struggling (i.e. active attempts to escape) indicates active coping behaviour that can be interpreted as an improvement of depression-like symptoms. For example, treatment with serotonergic antidepressants reduce the total time spent floating (Borsini, Neurosci. Biobehav. Rev. 19 (1995), 377-395; Redrobe and Bourin, Psychopharmacology 138 (1998), 198-206, and in parallel increases the time of active behaviour (i.e. swimming or struggling; Lucki et al., Psychopharmacology 155 (2001), 315-322).
The behaviour of individual mice was assessed using the Porsolt's forced swim test 24 hours after injection of vehicle solution, KN-62, or oATP. A pre-exposure of 5 minutes to the test was performed 15-17 minutes after administration of vehicle, KN-62, or oATP. A description of the Porsolt's forced swim test is given in example 9. […]

[3] = molecular target: T1, P2X7R; assay: Calcium influx into HT-22 cells (Oregon green AM ester); type: cell-based; set-up: dose or concentration left out as unconfirmed; details: HT-22 cells pre-treated with oATP for 1 hour before BzATP
Description: Since P2X7R is an ATP-gated ion channel which allows the entry of calcium and sodium ions into cells, a method for identifying P2X7R agonist was established by monitoring calcium influx into HT-22 cells. […] Calcium movement into the cells was visualised under a fluorescent microscope with a fluorescein filter (wavelength 492/517 nm). Oregon green AM ester is a fluorescent dye that binds to intracellular calcium. […] Alternatively, Oregon green AM ester can be replaced by Fluo-3, fluo-4, fluo-5F, fluo-5N, fluo4FF, Fluo4 dextran, Fluo-3 AM, Fluo-4 AM, Fluo-5F AM, Fluo-5N AM and Fluo4FF AM (Molecular Probes). Calcium influx in HT-22 cells can also be measured in 96-well and 384-well microplate using the Calcium Plus Assay Kit (Molecular Device) or FLIPR® Calcium Assay Kit for Fluorometric Imaging Plate Reader Systems (Molecular Device). HT-22 cells can be replaced by any cells expressing P2X7R, including cells that have been genetically modified by introducing an exogenous P2X7 gene.
Activation of P2X7R by the agonist was inhibited by oATP (FIG. 18) as illustrated by the absence of green fluorescence in the cells.

Nc1ncnc2c1ncn2[C@@H](C=O)O[C@@H](C=O)COP(=O)(O)OP(=O)(O)OP(=O)(O)O [oATP]
number of fluorescent cells after antagonist pre-incubation (ethidium bromide entry) [1]: reduction in the number of fluorescent cells | active escape attempts (time, frequency, latency of struggling) in the forced swim test [2]: no changes | passive behaviour (time, frequency, latency of floating) in the forced swim test [2]: no changes | activation of P2X7R by the agonist (BzATP) after antagonist pre-treatment, calcium influx [3]: inhibited
